The source of these data is ChEMBL document CHEMBL3826947, “New 4-Acyl-1-phenylaminocarbonyl-2-phenylpiperazine Derivatives as Potential Inhibitors of Adenovirus Infection. Synthesis, Biological Evaluation, and Structure-activity Relationships” (J Med Chem, 2016).

For orientation: inhibition means how much of the control response was suppressed. Usually CC50 stands for the concentration giving 50% cytotoxicity. Usually IC50 stands for the concentration needed to halve the response being measured.

SMILES strings stand for the structures. The source made the active and inactive calls. The calls are words filed in the database; no cut-off is given here.

For data set [1], the system named is Human adenovirus 5. The data set is described as follows: Antiviral activity against HAdV5 infected in 293beta5 cells assessed as inhibition of plaque formation at 10 uM after 7 days by GFP reporter gene assay relative to control. Type of data set: functional. To be noted: Human mastadenovirus C, 293beta5, 168 h. (A reporter such as luciferase makes a cellular process visible.)

Data set [2] can be described thus: Cytotoxicity against human A549 cells assessed as cell viability after 48 hrs by Alamar blue assay. Type of data set: cell-based. (In general: The colour change of resazurin is a common sign of viable cells or microbes.)
In data set [3] the test system is Human adenovirus 5. The data set is described as follows: Antiviral activity against HAdV5 infected in 293beta5 cells assessed as inhibition of plaque formation after 7 days by GFP reporter gene assay. Type of data set: functional, organism-based. As to conditions: for IC50: Human mastadenovirus C, 293beta5, 168 h.
Data set [4] concerns Human adenovirus 5. The data set is described as follows: Antiviral activity against HAdV5 infected in human A549 cells assessed as inhibition of viral genome entry in nucleus by measuring nuclear associated viral DNA level at 50 uM after 45 mins by real time PCR method (reference value: 78.55 +/- 1.37%). It is filed as functional. Further details: scale not given: the % may be the effect or the level left. (Quantitative PCR measures a nucleic acid by following its amplification.)

For a further data set, the system named is A549. Briefly: Effect on GAPDH gene expression in human A549 cells at 50 uM after 24 hrs by quantitative real time PCR method. Type of data set: ADME, cell-based. As to conditions: a549, 24 h.
A short description of data set [5]: Selectivity index, ratio of CC50 for human A549 cells to IC50 for inhibition of HAdV5 plaque formation in 293beta5 cells. It is filed as functional.
Data set [6] in a line: Antiviral activity against HAdV16 infected in 293beta5 cells assessed as inhibition of plaque formation after 7 days by GFP reporter gene assay. As to conditions: Human mastadenovirus B, 293beta5, 168 h. Type of data set: functional, cell-based, Human adenovirus 16.
Data set [7] concerns Human adenovirus 5. The data set is described as follows: Antiviral activity against HAdV5 infected in human A549 cells assessed as inhibition of viral entry at 50 uM preincubated for 45 mins followed by cell addition measured after 48 hrs by GFP reporter gene assay relative to control. It is filed as functional. To be noted: Human mastadenovirus C.
A short description of data set [8]: Selectivity index, ratio of CC50 for human A549 cells to IC50 for inhibition of HAdV16 plaque formation in 293beta5 cells. Type of data set: functional.
Data set [9] in a line: Antiviral activity against HAdV16 infected in human A549 cells assessed as reduction in viral yield at 50 uM after 48 hrs by virus burst size assay relative to control. Type of data set: functional, Human adenovirus 16.
Data set [10] relates to Human adenovirus 5. The data set is described as follows: Antiviral activity against HAdV5 infected in human A549 cells assessed as inhibition of viral DNA replication at 50 uM after 24 hrs by quantitative real time PCR method relative to control. As to conditions: Human mastadenovirus C, A549, 24 h. It is filed as functional.
For data set [11], the system named is Human adenovirus 5. Briefly: Antiviral activity against HAdV5 infected in human A549 cells assessed as reduction in viral yield at 50 uM after 48 hrs by virus burst size assay relative to control. Type of data set: functional.
Data set [12] has as its system Human adenovirus 5. Briefly: Antiviral activity against HAdV5 infected in human A549 cells assessed as inhibition of viral entry preincubated for 45 mins followed by cell addition measured after 48 hrs by GFP reporter gene assay. Type of data set: functional, organism-based. To be noted: for IC50: Human mastadenovirus C.
The test system of data set [13] is Human adenovirus 5. The data set is described as follows: Antiviral activity against HAdV5 assessed as inhibition of E1A mRNA transcription measured 6 hrs post infection. Type of data set: functional, organism-based.

Take `O=C(c1cc2ccccc2o1)N1CCN(C(=O)Nc2ccccc2[N+](=O)[O-])C(c2ccccc2)C1` (stereo unspecified): in the data set on Human adenovirus 5 [1], the inhibition at 10 µM is 100%. For the same molecule, the CC50 at 48 h in data set [2] came to 132 µM. Besides, the inhibition entry with Human adenovirus 5 [3] was “Dose-dependent effect”. The IC50 in the data set on Human adenovirus 5 [3] came to 2.5 µM; in data set [6], 2.3 µM. The Activity with Human adenovirus 5 [4] is 79.26%; in the data set on A549, “Non-toxic”. Moreover, the entries for the “Ratio CC50/IC50” value in data set [5] and in data set [8] were 53.3 and 57.3, respectively. The inhibition at 50 µM with Human adenovirus 5 [7] was determined as 38%; with Human adenovirus 5 [10] it was 73.1%. Further, the entries for the “fold change (FC)” value (in data set [9]; with Human adenovirus 5 [11]) were 46.5 and 34.5, respectively.

Turning to `CC(C)(C)OC(=O)N1CCN(C(=O)Nc2ccc([N+](=O)[O-])cc2)C(c2ccccc2)C1` (stereo unspecified), the inhibition at 10 µM with Human adenovirus 5 [1] was determined as 96%. In addition, in [2], the CC50 at 48 h stood at 161 µM. Further, the inhibition entry in the data set on Human adenovirus 5 [3] and with Human adenovirus 5 [12] was “Dose-dependent effect” in each case. Moreover, the IC50 is 3.4 µM in the data set with Human adenovirus 5 [3], 32.5 µM in the data set with Human adenovirus 5 [12] and 4.8 µM in [6]. Besides, the Activity in the data set on Human adenovirus 5 [4] is on record as 77.96%; with A549, “Non-toxic”. Also, the “Ratio CC50/IC50” value in data set [5] is reported as 47.3; in data set [8], 33.6. Moreover, the inhibition at 50 µM amounted to 80% in the data set on Human adenovirus 5 [7] and 80.7% with Human adenovirus 5 [10]. In addition, the “fold change (FC)” value in [9] is 265.5; in the data set with Human adenovirus 5 [11], 211.7.

As to `O=C(c1cc2ccccc2o1)N1CCN(C(=O)Nc2ccc([N+](=O)[O-])cc2)C(c2ccccc2)C1` (stereo unspecified), in the data set on Human adenovirus 5 [1], the inhibition at 10 µM was found to be 100%. The half-maximal cytotoxic concentration (CC50) at 48 h in data set [2] was determined as 194 µM. For the same molecule, the inhibition entry in the data set on Human adenovirus 5 [3] and in the data set on Human adenovirus 5 [12] was “Dose-dependent effect” in each case. The IC50 was found to be 2.1 µM in the data set on Human adenovirus 5 [3], 26.7 µM with Human adenovirus 5 [12] and 3.5 µM in [6]. For the same molecule, the Activity with Human adenovirus 5 [4] is 77.99%; in the data set with A549, “Non-toxic”. The “Ratio CC50/IC50” value came out at 93.5 in data set [5] and 55.4 in data set [8]. In addition, the inhibition at 50 µM in the data set with Human adenovirus 5 [7] is 84%; in the data set on Human adenovirus 5 [10], 80.9%. Moreover, the “fold change (FC)” value amounted to 34.6 in data set [9] and 35.7 with Human adenovirus 5 [11].

Turning to `O=C(c1cc2ccccc2o1)N1CCN(C(=O)Nc2cc(C(F)(F)F)ccc2Cl)C(c2ccccc2)C1` (stereo unspecified), the inhibition at 10 µM in the data set with Human adenovirus 5 [1] amounted to 97%. For the same molecule, in the data set on Human adenovirus 5 [13], the inhibition entry was “inactive”. Further, in [2], the CC50 at 48 h was found to be 131 µM. Moreover, in the data set on Human adenovirus 5 [3], the inhibition result was “Dose-dependent effect”. Further, the half-maximal inhibitory concentration (IC50) in the data set with Human adenovirus 5 [3] was 1.1 µM; in [6] it was 1.8 µM. In addition, the Activity with Human adenovirus 5 [4] came out at 85%. Besides, the results for the “Ratio CC50/IC50” value in data set [5] and in data set [8] were 116.2 and 72.7, respectively. Further, the inhibition at 50 µM with Human adenovirus 5 [7] amounted to 30%. The “fold change (FC)” value was determined as 33.2 in data set [9] and 60.3 in the data set on Human adenovirus 5 [11].

In the case of `O=C(c1cc2ccccc2o1)N1CCN(C(=O)Nc2ccc(Cl)cc2)C(c2ccccc2)C1` (stereo unspecified), in the data set on Human adenovirus 5 [1], the inhibition at 10 µM is 100%. Besides, the CC50 at 48 h in data set [2] came out at 194 µM. For the same molecule, the inhibition entry in the data set with Human adenovirus 5 [3] is “Dose-dependent effect”. The figures for the IC50 (with Human adenovirus 5 [3]; in data set [6]) were 2.5 µM and 3.4 µM, respectively. Further, the Activity in the data set with Human adenovirus 5 [4] is 77.71%; in the data set on A549, “Non-toxic”. In addition, the “Ratio CC50/IC50” value came to 79 in data set [5] and 56.9 in data set [8]. In addition, the inhibition at 50 µM with Human adenovirus 5 [7] is 33%; with Human adenovirus 5 [10], 78.9%. The entries for the “fold change (FC)” value (in data set [9]; in the data set on Human adenovirus 5 [11]) were 27.4 and 9.9, respectively.

As to `N#Cc1ccc(NC(=O)N2CCN(C(=O)c3cc4ccccc4o3)CC2c2ccccc2)cc1` (stereo unspecified), the inhibition at 10 µM with Human adenovirus 5 [1] is 98%. The CC50 at 48 h in [2] was found to be 200 µM. Further, the inhibition result with Human adenovirus 5 [3] is “Dose-dependent effect”. The values for the IC50 (in the data set on Human adenovirus 5 [3]; in [6]) were 4.7 µM and 3.9 µM, respectively. Moreover, the Activity in the data set with Human adenovirus 5 [4] was 81.05%; with A549, “Non-toxic”. Also, the “Ratio CC50/IC50” value in data set [5] is given as 42.7; in [8], 51.2. The figures for the inhibition at 50 µM in the data set on Human adenovirus 5 [7] and with Human adenovirus 5 [10] were 63% and 88.5%, respectively. Further, the “fold change (FC)” value in [9] is recorded as 60.9; with Human adenovirus 5 [11], 16.9.
